Earlier results on 2 compounds are cited in patent US20120070594A1, “HYDROGENATED BISPHENOL-A-BASED POLYMERS AS SUBSTITUTES FOR BISPHENOL-A-BASED POLYMERS” (priority 2010, published 2012).

Broadly, the pKa is the pH at which an ionisable group is half protonated. Regarding `CC(C)(C1CCC(O)CC1)C1CCC(O)CC1` (stereo not drawn) [HBPA, 4-[2-(4-hydroxycyclohexyl)propan-2-yl]cyclohexan-1-ol], the pKa is listed as 17. The “LD50 (rat)” value with rat was 5660 mg per kg.

For the compound `CC(C)(c1ccc(O)cc1)c1ccc(O)cc1` [BPA, 4,4′-(Propane-2,2-diyl)diphenol, reference compound], the pKa is 9.6.
